Active and inactive are the calls of the source. The calls are words filed in the database; no cut-off is given here.
How the values were obtained:
[1] = system: HBZY-1; assay: Cytotoxicity against rat HBZY-1 cells assessed as decrease in cell viability after 72 hrs by MTT assay; assay type: cell-based; details: HBZY-1, 72 h
[2] = system: HBZY-1; assay: Cytoprotection against H2O2-induced cell death in rat HBZY-1 cells assessed as cell viability at 100 uM preincubated for 2 hrs followed by H2O2 addition and measured after 24 hrs by MTT assay (reference value: 62.1%); assay type: functional; details: read-out: Activity
[3] = system: HBZY-1; assay: Cytoprotection against H2O2-induced cell death in rat HBZY-1 cells assessed as cell viability at 6 uM preincubated for 2 hrs followed by H2O2 addition and measured after 24 hrs by MTT assay (reference value: 62.1%); assay type: functional; details: read-out: Activity
[4] = molecular target: T1, Nuclear factor erythroid 2-related factor 2 (Rattus norvegicus) (UniProt O54968); assay: Activation of Nrf2 in rat HBZY-1 cells assessed as increase in NQO-1 mRNA expression at 6 uM after 24 hrs by RT-PCR analysis; assay type: cell-based
T1 sequence (whole entry): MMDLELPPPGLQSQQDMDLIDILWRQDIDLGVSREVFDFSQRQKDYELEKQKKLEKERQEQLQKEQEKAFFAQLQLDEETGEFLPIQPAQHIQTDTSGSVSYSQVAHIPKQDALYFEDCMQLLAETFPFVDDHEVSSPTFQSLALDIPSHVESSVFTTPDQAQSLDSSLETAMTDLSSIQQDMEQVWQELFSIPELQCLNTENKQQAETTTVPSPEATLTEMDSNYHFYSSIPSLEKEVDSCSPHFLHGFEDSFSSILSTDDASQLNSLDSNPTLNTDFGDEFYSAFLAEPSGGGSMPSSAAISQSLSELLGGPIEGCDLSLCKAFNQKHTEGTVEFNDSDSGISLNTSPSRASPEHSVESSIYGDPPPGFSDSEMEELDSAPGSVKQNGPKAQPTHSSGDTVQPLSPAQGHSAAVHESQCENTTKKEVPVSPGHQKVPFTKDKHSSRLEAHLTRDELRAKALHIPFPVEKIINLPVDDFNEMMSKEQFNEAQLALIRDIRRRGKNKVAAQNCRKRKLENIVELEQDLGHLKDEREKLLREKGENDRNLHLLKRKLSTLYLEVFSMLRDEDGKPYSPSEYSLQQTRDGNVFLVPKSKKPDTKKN

[5] = molecular target: T1, Nuclear factor erythroid 2-related factor 2 (Rattus norvegicus); assay: Activation of Nrf2 in rat HBZY-1 cells assessed as increase in HO-1 level at 6 uM by Western blot analysis; assay type: cell-based
[6] = molecular target: T1, Nuclear factor erythroid 2-related factor 2 (Rattus norvegicus); assay: Activation of Nrf2 in rat HBZY-1 cells assessed as increase in GCLC level at 6 uM by Western blot analysis; assay type: cell-based
[7] = molecular target: T1, Nuclear factor erythroid 2-related factor 2 (Rattus norvegicus); assay: Activation of Nrf2 in rat HBZY-1 cells assessed as increase in GCLM level at 6 uM by Western blot analysis; assay type: cell-based
[8] = molecular target: T1, Nuclear factor erythroid 2-related factor 2 (Rattus norvegicus); assay: Activation of Nrf2 in rat HBZY-1 cells assessed as increase in HO-1 mRNA expression at 6 uM after 24 hrs by RT-PCR analysis; assay type: cell-based
[9] = molecular target: T1, Nuclear factor erythroid 2-related factor 2 (Rattus norvegicus); assay: Activation of Nrf2 in rat HBZY-1 cells assessed as increase in NQO-1 level at 6 uM by Western blot analysis; assay type: cell-based
[10] = molecular target: T1, Nuclear factor erythroid 2-related factor 2 (Rattus norvegicus); assay: Activation of Nrf2 in rat HBZY-1 cells assessed as increase in GCLC mRNA expression at 6 uM after 24 hrs by RT-PCR analysis; assay type: cell-based
[11] = molecular target: T1, Nuclear factor erythroid 2-related factor 2 (Rattus norvegicus); assay: Activation of Nrf2 in rat HBZY-1 cells assessed as increase in GCLM mRNA expression at 6 uM after 24 hrs by RT-PCR analysis; assay type: cell-based
[12] = system: HBZY-1; assay: Cytotoxicity against rat HBZY-1 cells assessed as decrease in cell viability up to 200 uM after 72 hrs by MTT assay; assay type: cell-based; details: hbzy-1, 72 h
[13] = system: HBZY-1; assay: Cytoprotection against H2O2-induced cell death in rat HBZY-1 cells assessed as increase in cell viability preincubated for 2 hrs followed by H2O2 addition and measured after 24 hrs by MTT assay; assay type: functional, cell-based
[14] = system: HBZY-1; assay: Cytoprotection against H2O2-induced cell death in rat HBZY-1 cells assessed as increase in cell viability at 6 uM preincubated for 2 hrs followed by H2O2 addition and measured after 24 hrs by MTT assay; assay type: functional, cell-based
[15] = system: HBZY-1; assay: Cytoprotection against H2O2-induced cell death in rat HBZY-1 cells assessed as increase in cell viability at 6 uM preincubated for 2 hrs with 20 nM BSO prior to compound addition followed by 2 hrs incubation before H2O2 addition and measured after 24 hrs by MTT assay; assay type: functional, cell-based
[16] = molecular target: T2, Nuclear factor erythroid 2-related factor 2 (Homo sapiens) (UniProt Q16236); assay: Activation of Nrf2 (unknown origin) expressed in HEK293 cells after 16 hrs by luciferase reporter gene assay; assay type: cell-based
T2 sequence (whole entry): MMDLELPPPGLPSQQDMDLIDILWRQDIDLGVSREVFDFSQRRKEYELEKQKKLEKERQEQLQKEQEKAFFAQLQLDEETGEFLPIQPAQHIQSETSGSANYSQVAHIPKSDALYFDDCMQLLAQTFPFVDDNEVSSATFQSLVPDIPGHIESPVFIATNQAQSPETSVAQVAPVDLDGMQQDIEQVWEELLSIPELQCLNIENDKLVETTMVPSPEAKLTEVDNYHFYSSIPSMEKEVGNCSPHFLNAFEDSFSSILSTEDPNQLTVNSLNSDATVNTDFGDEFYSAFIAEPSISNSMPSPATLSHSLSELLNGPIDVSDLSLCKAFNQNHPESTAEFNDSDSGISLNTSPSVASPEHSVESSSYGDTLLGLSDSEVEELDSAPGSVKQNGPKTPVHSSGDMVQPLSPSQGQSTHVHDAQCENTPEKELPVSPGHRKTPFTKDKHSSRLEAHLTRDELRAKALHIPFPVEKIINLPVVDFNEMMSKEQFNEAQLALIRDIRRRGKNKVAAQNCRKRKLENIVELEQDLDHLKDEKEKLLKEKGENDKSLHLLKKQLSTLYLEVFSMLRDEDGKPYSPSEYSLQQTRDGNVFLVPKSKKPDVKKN

[17] = molecular target: T3, Keap1/Nrf2 (Homo sapiens) (UniProt Q16236+Q14145); assay: Induction of Keap1/Nrf2 (unknown origin) interaction assessed as reduction in Nfr2 level in presence of DTT by Western blot analysis; assay type: protein assay
[18] = system: HBZY-1; assay: Cytoprotection against H2O2-induced cell death in rat HBZY-1 cells assessed as increase in cell viability at 6 uM preincubated for 2 hrs with 10 nM BSO prior to compound addition followed by 2 hrs incubation before H2O2 addition and measured after 24 hrs by MTT assay; assay type: functional, cell-based
[19] = system: HBZY-1; assay: Cytoprotection against H2O2-induced cell death in rat HBZY-1 cells assessed as increase in cell viability at 6 uM preincubated for 2 hrs with 3 nM ZNPP prior to compound addition followed by 2 hrs incubation before H2O2 addition and measured after 24 hrs by MTT assay; assay type: functional, cell-based
[20] = molecular target: T3, Keap1/Nrf2 (Homo sapiens); assay: Induction of Keap1/Nrf2 (unknown origin) interaction assessed as increase in Nfr2 level in absence of DTT by Western blot analysis; assay type: protein assay
[21] = system: HBZY-1; assay: Cytoprotection against H2O2-induced cell death in rat HBZY-1 cells assessed as increase in cell viability at 6 uM pre-incubated for 2 hrs with 100 nM TRG prior to compound addition followed by 2 hrs incubation before H2O2 addition and measured after 24 hrs by MTT assay; assay type: functional, cell-based
[22] = molecular target: T3, Keap1/Nrf2 (Homo sapiens); assay: Induction of Keap1/Nrf2 (unknown origin) interaction assessed as reduction in Nfr2 level in absence of DTT by Western blot analysis; assay type: protein assay
[23] = system: HBZY-1; assay: Cytoprotection against H2O2-induced cell death in rat HBZY-1 cells assessed as increase in cell viability at 6 uM preincubated for 2 hrs with 200 nM TRG prior to compound addition followed by 2 hrs incubation before H2O2 addition and measured after 24 hrs by MTT assay; assay type: functional, cell-based
[24] = molecular target: T3, Keap1/Nrf2 (Homo sapiens); assay: Induction of Keap1/Nrf2 (unknown origin) interaction assessed as increase in Nfr2 level in presence of DTT by Western blot analysis; assay type: protein assay
[25] = system: HBZY-1; assay: Antioxidant activity in rat HBZY-1 cells assessed as inhibition of H2O2-induced ROS accumulation […] for 12 hrs followed by H2O2 addition and measured after 3 hrs by DCFHA-DA/FITC staining-based FACS analysis; assay type: functional, cell-based
[26] = system: HBZY-1; assay: Cytoprotection against H2O2-induced cell death in rat HBZY-1 cells assessed as increase in cell viability at 6 uM preincubated for 2 hrs with 6 nM ZNPP prior to compound addition followed by 2 hrs incubation before H2O2 addition and measured after 24 hrs by MTT assay; assay type: functional, cell-based

T3 sequence (Q14145 whole entry, looked up, one chain of several): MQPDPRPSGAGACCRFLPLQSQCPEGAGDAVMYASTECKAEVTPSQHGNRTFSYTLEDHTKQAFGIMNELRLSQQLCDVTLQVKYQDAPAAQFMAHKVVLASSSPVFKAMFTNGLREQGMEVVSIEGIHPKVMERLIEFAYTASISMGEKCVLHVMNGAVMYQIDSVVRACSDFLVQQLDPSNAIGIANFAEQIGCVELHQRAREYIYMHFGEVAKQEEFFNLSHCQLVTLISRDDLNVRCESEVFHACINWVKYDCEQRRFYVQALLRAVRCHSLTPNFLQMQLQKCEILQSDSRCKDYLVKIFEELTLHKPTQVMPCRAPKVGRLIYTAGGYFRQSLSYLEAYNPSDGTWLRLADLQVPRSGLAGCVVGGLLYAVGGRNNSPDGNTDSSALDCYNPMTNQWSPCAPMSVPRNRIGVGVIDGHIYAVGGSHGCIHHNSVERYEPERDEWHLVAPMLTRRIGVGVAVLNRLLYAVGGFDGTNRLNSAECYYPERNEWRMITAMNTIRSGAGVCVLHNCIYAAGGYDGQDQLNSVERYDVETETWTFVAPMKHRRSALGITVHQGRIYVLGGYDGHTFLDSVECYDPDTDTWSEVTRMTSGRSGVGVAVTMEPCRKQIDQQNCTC

COC(=O)c1cc(OC)c2c(c1-c1c(/C=C(\C#N)C(=O)NCc3ccc(OC)cc3)cc(OC)c3c1OCO3)OCO2
IC50 [1]: > 200 µM

COC(=O)c1cc(OC)c2c(c1-c1c(C(=O)OC)cc(OC)c3c1OCO3)OCO2 [BIFENDATE]
viability at 100 µM [2]: 89.8% | viability at 6 µM [3]: 66.1%

COC(=O)c1cc(OC)c2c(c1-c1c(/C=C/C(=O)NCCc3ccc(OC)c(OC)c3)cc(OC)c3c1OCO3)OCO2
IC50 [1]: > 200 µM

COC(=O)c1cc(OC)c2c(c1-c1c(/C=C(\C#N)C(=O)Nc3ccc(OC)c(OC)c3)cc(OC)c3c1OCO3)OCO2
IC50 [1]: > 200 µM

Oc1ccc(/C=C/c2cc(O)cc(O)c2)cc1
Activity [4]: Active | Activity [5]: Active | Activity [6]: Active | Activity [7]: Active | Activity [8]: Active | Activity [9]: Active | Activity [10]: Active | Activity [11]: Active

CCCCNC(=O)/C(C#N)=C/c1cc(OC)c2c(c1-c1c(C(=O)OC)cc(OC)c3c1OCO3)OCO2
IC50 [1]: > 200 µM | viability at 6 µM [3]: 95.3%

COC(=O)c1cc(OC)c2c(c1-c1c(/C=C/C(=O)Nc3ccc(OC)cc3)cc(OC)c3c1OCO3)OCO2
IC50 [1]: > 200 µM

COC(=O)c1cc(OC)c2c(c1-c1c(/C=C(\C#N)C(=O)Nc3ccccc3OC)cc(OC)c3c1OCO3)OCO2
Activity [12]: Toxic | IC50 [1]: > 200 µM | Activity [13]: Dose-dependent effect | viability at 6 µM [3]: 99.2%

COC(=O)c1cc(OC)c2c(c1-c1c(/C=C/C(=O)Nc3ccc(OC)c(OC)c3)cc(OC)c3c1OCO3)OCO2
IC50 [1]: > 200 µM

COC(=O)c1cc(OC)c2c(c1-c1c(/C=C/C(=O)Nc3cc(OC)c(OC)c(OC)c3)cc(OC)c3c1OCO3)OCO2
IC50 [1]: > 200 µM

COC(=O)c1cc(OC)c2c(c1-c1c(/C=C(\C#N)C(=O)NCCc3ccc(OC)c(OC)c3)cc(OC)c3c1OCO3)OCO2
IC50 [1]: > 200 µM

CCCCNC(=O)/C=C/c1cc(OC)c2c(c1-c1c(C(=O)OC)cc(OC)c3c1OCO3)OCO2
IC50 [1]: > 200 µM

COC(=O)c1cc(OC)c2c(c1-c1c(/C=C/C(=O)Nc3ccccc3OC)cc(OC)c3c1OCO3)OCO2
IC50 [1]: > 200 µM | viability at 6 µM [3]: 90.6%

COC(=O)c1cc(OC)c2c(c1-c1c(/C=C(\C#N)C(=O)Nc3cc(OC)c(OC)c(OC)c3)cc(OC)c3c1OCO3)OCO2
IC50 [1]: > 200 µM

COc1ccc(/C=C(\C#N)C(=O)Nc2ccccc2OC)cc1
IC50 [1]: > 200 µM | Activity [14]: inactive

COc1ccccc1NC(=O)/C(C#N)=C/c1cc(OC)c(OC)c(OC)c1
IC50 [1]: > 200 µM | Activity [14]: inactive

COC(=O)c1cc(OC)c2c(c1-c1c(/C=C/C(=O)NCc3ccc(OC)cc3)cc(OC)c3c1OCO3)OCO2
IC50 [1]: > 200 µM

COc1ccccc1NC(=O)/C(C#N)=C/c1ccc(OC)c(OC)c1
IC50 [1]: > 200 µM | Activity [14]: inactive

COC(=O)c1cc(OC)c2c(c1-c1c(/C=C(\C#N)C(=O)Nc3ccc(OC)cc3)cc(OC)c3c1OCO3)OCO2
Activity [15]: inactive | Activity [12]: Non-Toxic | IC50 [1]: > 200 µM | Activity [16]: Dose-dependent effect | inhibition [17]: inactive | Activity [18]: inactive | Activity [19]: inactive | Activity [20]: Active | Activity [21]: inactive | Activity [22]: Active | Activity [23]: inactive | Activity [13]: Dose-dependent effect | viability at 6 µM [3]: 97.2% | inhibition [24]: inactive | inhibition [25]: Dose-dependent effect | Activity [26]: inactive

— ChEMBL document CHEMBL4371015, “Synthesis and biological evaluation of bifendate derivatives bearing acrylamide moiety as novel antioxidant agents” (Eur J Med Chem, 2019)
